Tests used:
[1] = system: native DUBs (UCHL1, USP30 and JOSD1); assay: Competitive activity-based protein profiling with quantitative mass spectrometry in HEK-293T lysates; type: binding; settings: block of labeling by DUB activity-based probes
Procedure: Activity Based Protein Profiling (ABPP) assay. DUB targets were investigated using competitive ABPP with quantitative mass spectrometry. The ability to block labeling of 50 DUBs by ubiquitin-based DUB activity-based probes was quantitatively measured in HEK-293T lysates.
DUB ABPP of Compound Targets. Activity-based probes biotin-Ub-PA (UbiQ-076) and biotin-Ub-VME (UbiQ-054) were obtained from UbiQ Bio. DUB Activity based protein profiling was performed using conditions modified from those in Schauer, et al., 2020, Scientific Reports, 10:1-15, based on work by Lawson, et al., 2017 Oncotarget, 8:51296-316. HEK 293T cells were lysed (50 mM Tris pH 8.0, 150 mM NaCl, 5 mM MgC2, 0.5 mM EDTA, 0.5% NP-40, 10% glycerol, 1 mM tris(2-carboxyethyl)phosphine (TCEP), protease and phosphatase inhibitors) and the lysate was clarified by centrifugation, then diluted to 10 mg/mL. 200 μL aliquots were incubated at the indicated compound concentrations or DMSO for 5 hours at room temperature, final DMSO concentration 0.5%. Afterwards, the treated lysates were incubated with 1 μM each of Biotin-Ub-PA and Biotin-Ub-VME for 90 minutes at room temperature. […]
Specifically, quantitative mass spectrometry was utilized to measure the ability of compounds 1 and 2 to block labeling of […] native DUBs by ubiquitin-based DUB activity-based probes in HEK-293T lysates. […]

JAK2-V617F = assay: JAK2 protein level by western blotting in Ba/F3-EPOR-JAK2-V617F cells; type: cell-based
Procedure: Immunoblotting and Immunoprecipitation. Protein lysate preparation, immunoblotting, and immunoprecipitation were carried out as previously described (Lamberto, et al., 2017 Cell Chem Biol., 224(12):1490-500 e11). Briefly, 0.7×10^6 cells were treated with compounds 1 and 2 at 0, 5, 10, […], cells were collected, and lysate was prepared in radioimmunoprecipitation assay (RIPA) buffer, JAK family and downstream signaling protein levels were detected by western blotting with the indicated antibodies. For immunoprecipitation, 1 mg protein for each sample was prepared and 1 μg antibody was used, immunoglobulin G (IgG) was added in same amount as nontargeting control.
A broader range of compounds 1 and 2, including concentrations lower than 1 μM, were also tested on growth of EPOR-JAK2-V617F-expressing Ba/F3 cells and parental Ba/F3 EpoR+ cells (24 hours treatment on 4000 cells per well) (FIG. 18-FIG. 18B). Cell growth inhibition (FIG. 17A-FIG. 17B, FIG. 18A-FIG. 18B) was tested on Ba/F3-EPOR-JAK2-V617F (-IL-3/WEHI) and parental Ba/F3-EPOR cells (+IL-3/WEHI) plated at 2000 cells per well, at 1, 3 and 10 μM for 24 hours using the Promega CellTiter Glo® assay.

MCL-1 = MCL-1 (Homo sapiens (Human), UniProt Q07820); assay: MCL-1 expression in HEL cells by western blotting; type: cell-based; settings: 10-20 μM
Procedure: With JOSD1 as the prime candidate, JOSD1 binding and inhibition was evaluated by the compounds. First, targeted engagement was confirmed by showing competition with DUB ABP in HEL-FLAG-HA-JOSD1 cells following treatment with the two agents (FIG. 4D). The structures for negative control compounds 66 and 67 are shown below. In addition, the effects of small molecule inhibition of JOSD1 was investigated on MCL-1, an established substrate of JOSD1 (Wu, et al., 2020 Cell Death Differ., 27(1):55-70). […] Other exemplary compounds that inhibit DUBs are listed below in Table 3 (See Supra, ¶ [0063] for structures)

`Cc1noc(C)c1-c1cccc2nc(NC(=O)[C@H]3CCN(C#N)C3)sc12` [Compound 2, (S)-1-cyano-N-(7-(3,5-dimethylisoxazol-4-yl)benzo[d]thiazol-2-yl)pyrrolidine-3-carboxamide] was tested, and the “target engagement of UCHL1, USP30 and JOSD1” value [1] was “dose-dependent target engagement”, the “JAK2 degradation, independent western blotting” value (JAK2-V617F; 18 hours, 10 μM compound 1 or 5 μM compound 2) was “degradation of JAK2” and the JAK2-V617F protein level (JAK2-V617F; Ba/F3-EPOR-JAK2-V617F-expressing cells) was “decreases in JAK2-V617F protein”. The MCL-1 expression (MCL-1) was “decrease”.
